Measurements: US9687480B2, “Chiral 1-(4-methylphenylmethyl)-5-oxo-{N-[(3-t-butoxycarbonyl-aminomethyl)]-piperidin-1-yl)-pyrrolidine as inhibitors of collagen induced platelet activation and adhesion” (Council of Scientific & Industrial Research, priority 2011, dated 2017)
“And” between values parts separate entries of the source, which are not always exact repeats. Equal values may be shown once. Read-outs that look alike come from different tables or passages of the source.

Assays:
[1] = system: mice; experiment: Collagen-epinephrine induced pulmonary thromboembolism in mice; format: in vivo; conditions: Table 2 summary; how long protection lasts
Excerpt: To assess the antithrombotic efficacy of Compounds, mice were divided into vehicle, aspirin and Compounds treated groups, and each group included ten animals. […] Results have been reported as percentage protection, which represents protection against collagen and epinephrine induced thrombosis and expressed as: Percent Protection=(1-([…]-number of animals paralyzed/dead in test compound-treated group; Pcontrol-number of animals paralyzed/dead in vehicle treated group. Collagen Epinephrine Induced Pulmonary Thromboembolism (FIG. 1): […]

[2] = system: mice; experiment: Tail bleeding time in mice; format: in vivo; conditions: for Bleeding Time in mice: Table 2 summary; for prolongation in bleeding time: 30 μM/kg, 1 hr p.o. dosing
Procedure: Bleeding time in mice was evaluated by the method of Dejana et al, (Dejana E, Callioni A, Quintana A, Gaetano G. Bleeding time in laboratory animals. II—A comparison of different assay conditions in rats. […] The time elapsed from the tip incision to the stoppage of bleeding was determined as the bleeding time. The preferred compounds, aspirin (30 mg/kg) or vehicle was given orally 60 min prior to the tail incision in a group of 5 mice each.

[3] = system: rats; experiment: Arterio-venous shunt model in rats; format: in vivo; conditions: for Arterio-venous shunt model in rat: Table 2 summary; for thrombus weight: rats, given 1 hr prior to shunt
Excerpt: Rats were grouped into control, aspirin and test compound group, each group having six animals. Rats were anesthetized with urethane (1.25 g/kg). Cervical incision was made and carotid artery and its contra lateral jugular vein was exposed to prepare a shunt by using polyethylene tubes. Two 7 cm siliconized polyethylene tubes (0.5/1.0 mm inner/outer diameter) were linked to a central 6 cm silicon tube (1.0/1.5 mm, inner/outer diameter) containing a 5 cm silk thread (pre-weighed) and were filled with saline. The shunt assembly was cannulated between the jugular vein and contra-lateral carotid artery and blood was allowed to circulate through the shunt. Blood flow through the shunt was maintained for 10 minutes, subsequently the central part of the shunt was removed and silk thread having thrombus deposit was taken out and weighed. The thrombus adhered/deposited on thread was calculated by subtracting the wet weight of the silk thread. The standard drugs and test compounds were given 1 hr prior to the establishment of arterio-venous shunt (Tohti I, Tursun M, Umar A, Turdi S, Imin H, Moore N. Aqueous extracts of Ocimum basilicum L. (sweet basil) decrease platelet aggregation induced by ADP and thrombin in vitro and rats arterio-venous shunt thrombosis in vivo. Thrombosis Res. 2006; 118: 733-739).

[4] = system: hamster platelets; experiment: Platelet adhesion on collagen coated surface (hyperlipidemic hamster model, ex vivo); format: in vivo, hamsters; conditions: for Platelet adhesion hyperlipidemic hamsters: Table 2 summary; for platelet adhesion over collagen coated surface: hyperlipidemic hamsters, ex vivo
Procedure: Platelet adhesion to collagen was measured in polystyrene 96-well micro titer plates. Micro titer plates were coated with insoluble equine tendon native fibrillar type I collagen (Chrono-Log Corp. Havertown, USA), 2 μg/well in 5 mM acetic acid (Tandon N N, Ockenhouse C F, Greco […]. Adhesive functions of platelet lacking GPIV (CD36). Blood 1991; 78: 2809-13) overnight at 4° C. The unoccupied protein binding sites on the wells were blocked with 0.5% BSA in Tyrode's-HEPES buffer (136.7 mM NaCl, 13.8 mM NaHCO3. 0.36 mM NaH2PO4.H2O, 2.6 mM KCl, 1.0 mM MgCl2.6H2O, 5.5 mM glucose, pH 7.4) at room temperature for 1 hour, and then rinsed once with PBS. Washed platelets were suspended in the Tyrode's-HEPES buffer and added to the wells (2×10^7 cells/well) for 1 h at room temperature. After three washes with PBS, the number of adherent platelets was evaluated colorimetrically (Bellavite P., Andrioli G., Gizzo P., Arigliano P., Chirumbolo […] colorimetric method for the measurement of platelet adhesion in microtiter plates. Anal. Blochem. 1994; 216:444-450). Briefly, 150 μl of a 0.1 M citrate buffer (pH 5.4), containing 5 mM p-nitrophenyl phosphate and 0.1% TritonX-100 was added to the wells after washing. After incubation for 30 minutes at 25° C. in the absence of ambient light, colour was developed by the addition of 100 μl of 2N NaOH and the absorbance at 405 nm was read using a microplate reader (Powerware XS, Biotek, USA).

[5] = system: hamster whole blood (Collagen 2.5 μg/ml); experiment: Whole blood aggregation in hyperlipidemic hamsters (ex vivo), collagen induced; conditions: Table 2 summary
[6] = biological target: T1, human α-thrombin (Homo sapiens, UniProt P00734); experiment: Amidolytic assay of thrombin activity (fluorogenic substrate); format: biochemical; conditions: compound 1 at 300 μM and 1 mM after 15 min of substrate incubation
T1 construct: amidolytic activity of human α-thrombin using fluorogenic substrate

[7] = in vivo; format: in vivo, rabbits; conditions: for AUC / Cmax / MRT / Tmax: 20 mg/kg
Procedure: In-vivo pharmacokinetic parameters were generated in male NZ rabbits at a dose of 20 mg/kg by oral route of administration. The blood samples were drawn at 0.25, 0.5, 0.75, 1, 1.5, 2, 4, 6, 8, 10, 12, 18 and 24 hr post dose, processed and analyzed by Liquid Chromatography-Mass Spectrometry (LC-MS). Plasma concentration at different time points were plotted to give Plasma Concentration Time Profile and the data was fitted non-compartmentally using Win NonLin 5.1 version software and the estimates of pharmacokinetic parameters were derived with SD mean values. Maximum plasma concentration (Cmax), time to achieve maximum plasma concentration (tmax).

[8] = male, NZ, rabbit, in vivo, as stated in the summary text, read-out: tmax

Row | Compound | Collagen-epinephrine induced thrombosis in mice (duration of effect) [1] | Bleeding Time in mice [2] [fold] | Arterio-venous shunt model in rat [3] | Platelet adhesion hyperlipidemic hamsters [4] | Whole blood aggregation in hyperlipidemic hamsters [5] | prolongation in bleeding time [2] | thrombin amidolytic activity [6] | platelet adhesion over collagen coated surface [4] | AUC ([7]; male NZ rabbits, oral) [ng·h/mL] | Cmax ([7]; male NZ rabbits, oral) | MRT ([7]; male NZ rabbits, oral) [h] | Tmax ([7]; male NZ rabbits, oral) [h] | thrombus weight [3] | prolonged systemic exposure ([7]; as stated in the summary text) | Tmax [7, 8] [h]
1 | 1-(4-methylphenylmethyl)-5-oxo-{N-[(3-t-butoxycarbonyl-aminomethyl)]-piperidin-1-yl}-pyrrolidine-2-carboxamides [Compound 1] | Up to 18 hrs | 2 | Protective | Effective | Effective |  |  |  |  |  |  |  |  |  | 
2 | Cc1ccc(CN2C(=O)CC[C@H]2C(=O)N2CCCC(CNC(=O)OC(C)(C)C)C2)cc1 (some centres unmarked) [Compound 1, 1-(4-methylphenylmethyl)-5-oxo-{N-[(3-t-butoxycarbonyl-aminomethyl)]-piperidin-1-yl}-pyrrolidine-2-carboxamides] |  |  |  |  |  | approximately 1.5 fold | significant inhibitory effect | significant reduction | 6524.15 | 947.02 ± 237.4 ng/mL | 16.20 | 0.68 |  |  | 
3 | Cc1ccc(CN2C(=O)CC[C@H]2C(=O)N2CCC[C@@H](CNC(=O)OC(C)(C)C)C2)cc1 [Compound 6] | >24 h | 1.5 | Protective | Effective | Effective | approximately 1.5 fold | remained ineffective | significant inhibition | 874.8 | 149.49 ± 53.12 ng/mL | 5.25 | 0.75 | reducing the thrombus weight significantly | more than 24 hrs | 0.75 ± 0.144
4 | Cc1ccc(CN2C(=O)CC[C@H]2C(=O)N2CCC[C@H](CNC(=O)OC(C)(C)C)C2)cc1 [Compound 7, (2S)-1-(4-methylphenylmethyl)-5-oxo-(3R)-{N-[(3-t-butoxycarbonyl-aminomethyl)]-piperidin-1-yl}-pyrrolidine-2-carboxamide] | <12 h | 1.5 | Protective | No effect | No effect | approximately 1.5 fold | actively attenuated | no effect | 1112.81 | 112.81 ± 169.77 ng/mL and 112.40 ng/mL | 16.20 | 8.67 | reducing the thrombus weight significantly |  | 8.67 ± 0.66
